Molecular target: T1, soluble guanylate cyclase (sGC) (Homo sapiens, UniProt Q02108+Q02153)
T1 construct: endogenously expressing soluble guanylate cyclase (sGC); endogenous in cells; host or cells: HEK293
T1 sequence (Q02108 1-690): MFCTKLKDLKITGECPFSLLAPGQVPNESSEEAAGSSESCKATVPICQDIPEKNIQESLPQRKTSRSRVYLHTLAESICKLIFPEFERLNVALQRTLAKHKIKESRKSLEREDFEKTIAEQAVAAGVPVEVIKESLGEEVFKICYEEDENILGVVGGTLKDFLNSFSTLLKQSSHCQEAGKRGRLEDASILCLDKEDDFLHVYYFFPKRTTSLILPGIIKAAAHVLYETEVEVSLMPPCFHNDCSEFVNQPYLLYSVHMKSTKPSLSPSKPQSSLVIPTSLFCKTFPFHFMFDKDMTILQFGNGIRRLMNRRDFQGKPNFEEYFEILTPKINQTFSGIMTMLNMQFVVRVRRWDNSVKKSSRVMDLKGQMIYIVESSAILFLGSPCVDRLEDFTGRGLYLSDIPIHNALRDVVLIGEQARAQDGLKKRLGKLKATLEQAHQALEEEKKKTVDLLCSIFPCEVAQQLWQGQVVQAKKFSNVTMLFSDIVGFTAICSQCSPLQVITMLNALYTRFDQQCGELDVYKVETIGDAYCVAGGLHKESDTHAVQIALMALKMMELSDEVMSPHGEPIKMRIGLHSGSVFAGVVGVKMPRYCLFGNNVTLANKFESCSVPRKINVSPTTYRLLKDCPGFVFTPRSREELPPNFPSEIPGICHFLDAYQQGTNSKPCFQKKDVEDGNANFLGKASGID
T1 sequence (Q02153 1-619): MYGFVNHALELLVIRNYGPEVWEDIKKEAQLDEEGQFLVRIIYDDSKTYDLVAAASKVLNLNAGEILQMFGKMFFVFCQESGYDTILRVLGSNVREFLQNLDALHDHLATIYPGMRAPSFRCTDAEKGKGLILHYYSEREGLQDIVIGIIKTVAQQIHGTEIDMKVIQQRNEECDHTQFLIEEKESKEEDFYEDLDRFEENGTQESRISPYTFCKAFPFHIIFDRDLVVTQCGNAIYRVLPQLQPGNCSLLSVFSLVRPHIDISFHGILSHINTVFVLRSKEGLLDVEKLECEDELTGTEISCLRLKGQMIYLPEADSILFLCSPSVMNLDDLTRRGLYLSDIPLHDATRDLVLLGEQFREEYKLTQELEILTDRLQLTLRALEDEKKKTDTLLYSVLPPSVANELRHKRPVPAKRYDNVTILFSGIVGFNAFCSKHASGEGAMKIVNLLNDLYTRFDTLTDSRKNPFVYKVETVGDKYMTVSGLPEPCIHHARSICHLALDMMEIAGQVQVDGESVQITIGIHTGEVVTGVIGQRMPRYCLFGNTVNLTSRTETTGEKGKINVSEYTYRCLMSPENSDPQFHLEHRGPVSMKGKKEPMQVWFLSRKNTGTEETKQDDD
Assay: sGC-HEK-cGMP assay with LC/MS detection (Example 2A)
Format: cell-based
Conditions: HEK293 cells, 10 μM DETA-NONOate, 20 min; concentration eliciting 50% of high control response (30 μM Compound Y); read-out: Absolute EC50 (nM) - binned
Method: Human embryonic kidney cells (HEK293), endogenously expressing soluble guanylate cyclase (sGC), were used to evaluate the activity of test compounds. Compounds stimulating the sGC enzyme should cause an increase in the intracellular concentration of cGMP. HEK 293 cells were seeded in Dulbecco's Modification of Eagle's Medium supplemented with fetal bovine serum (10% final) and penicillin (100 U/mL)/streptomycin (100 μg/mL) in a 50 μL, volume at a density of 1.5×10^4 cells/well in a poly-D-lysine coated 384 well flat bottom plate. Cells were incubated overnight at 37° C. in a humidified chamber with 5% CO2. Medium was aspirated and cells were washed with 1× Hank's Buffered Saline Salt Solution (50 μL). Cells were then incubated for 15 minutes at 37° C. with 50 μL of a 0.5 mM 3-isobutyl-1-methylxanthine (IBMX) solution. Test article and Diethylenetriamine NONOate (DETA-NONOate) solutions (x μM concentration for test article solution and 10 μM concentration for DETA-NONOate solution; wherein x is one of the following concentrations);
were then added to the assay mixture and the resulting mixture incubated at 37° C. for 20 minutes. After the 20 minute incubation, the assay mixture was aspirated and 10% acetic acid containing 150 ng/mL+3-cGMP (internal standard for LCMS) (50 μL) was added to the cells. The plate was incubated at 4° C. for 30 minutes in the acetic acid solution to stop the reaction and lyse the cells. The plates were then centrifuged at 1,000 g for 3 minutes at 4° C. and the supernatant transferred to a clean reaction plate for LCMS analysis.
cGMP concentrations were determined from each sample using the LCMS conditions below (Table 2) and calculated standard curve. The standard curve was prepared in 10% acetic acid with 150 ng/mL+3cGMP (isotopically labelled cGMP with a weight 3 units higher than wild type) with the following final concentrations of cGMP in ng/mL: 1, 5, 10, 50, 100, 250, 500, 1000, 2000.
(§1) Data were normalized to a high control using the following equation: 100*(Sample—Low Control)/(High Control—Low Control), where the low control is the average of 16 samples treated with 1% DMSO, and the high control is the average of 16 samples treated with 30 μM of Compound Y depicted below. Data were fit using a 4-parameter fit (log(agonist) vs. response variable slope) using GraphPad Prism Software v.5. n=2 for all compounds. […] Compounds failing to elicit a minimum response of 50% are reported as >30 μM. For compounds run in duplicate or n higher than 2, the result herein given is the geometric mean of the several results obtained.

| EC50 [nM] | Compound |
| --- | --- |
| < 100 | COc1cc(-c2nc(N)c3c(n2)NC(=O)C3(C)c2nnc(C)o2)nn1Cc1ccccc1F (stereo not drawn) [Compound I-1, 4-amino-2-(1-(2-fluorobenzyl)-5-methoxy-1H-pyrazol-3-yl)-5-methyl-5-(5-methyl-1,3,4-oxadiazol-2-yl)-5H-pyrrolo[2,3-d]pyrimidin-6(7H)-one] |
| > 1000 | OCCn1nnc2cnc(-c3cc(-c4ccon4)n(Cc4ccccc4F)n3)nc21 [Compound I-2] |
| > 1000 | OC(Cn1nnc2cnc(-c3cc(-c4ccon4)n(Cc4ccccc4F)n3)nc21)(C(F)(F)F)C(F)(F)F [Compound I-3] |
| > 1000 | CC1(C)C(=O)N(CCO)c2nc(-c3cc(-c4ccon4)n(Cc4ccccc4F)n3)nnc21 [Compound I-4] |
| 100 to 1000 | COC(=O)NS(=O)(=O)Nc1nc(-c2cc(-c3ccon3)n(Cc3ccccc3F)n2)nc2c1C(C)(C#N)C(=O)N2 (stereo not drawn) [Compound I-5] |
| 100 to 1000 | CC1(C)C(=O)Nc2nc(-c3cc(-c4ccon4)n(Cc4ccccc4F)n3)nc(NCCO)c21 [Compound I-6] |
| > 1000 | CC1(C(=O)NCCO)C(=O)Nc2nc(-c3cc(-c4ccon4)n(Cc4ccccc4F)n3)nc(NCCO)c21 (stereo not drawn) [Compound I-7] |
| 100 to 1000 | CC1(C)C(=O)Nc2nc(-c3cc(-c4ccon4)n(Cc4ccccc4F)n3)nc(NCC(O)(C(N)=O)C(F)(F)F)c21 (stereo not drawn) [Compound I-8] |
| 100 to 1000 | CCOC(=O)C1(C)C(=O)Nc2nc(-c3ccn(Cc4ccccc4F)n3)nc(N)c21 (stereo not drawn) [Compound I-13, ethyl 4-amino-2-(1-(2-fluorobenzyl)-1H-pyrazol-3-yl)-5-methyl-6-oxo-6,7-dihydro-5H-pyrrolo[2,3-d]pyrimidine-5-carboxylate] |
| > 1000 | CC1(C(=O)NC2CC2)C(=O)Nc2nc(-c3ccn(Cc4ccccc4F)n3)nc(N)c21 (stereo not drawn) [Compound I-14, 4-amino-N-cyclopropyl-2-(1-(2-fluorobenzyl)-1H-pyrazol-3-yl)-5-methyl-6-oxo-6,7-dihydro-5H-pyrrolo[2,3-d]pyrimidine-5-carboxamide] |
| > 1000 | Fc1ccccc1Cn1nc(-c2ncc3[nH]nnc3n2)cc1-c1ccon1 [Compound I-15] |
| > 1000 | CC1(C(N)=O)C(=O)Nc2nc(-c3cc(-c4ccon4)n(Cc4ccccc4F)n3)ncc21 (stereo not drawn) [Compound I-16] |
| 100 to 1000 | CCOC(=O)C1(C)C(=O)Nc2nc(-c3cc(-c4ccon4)n(Cc4ccccc4F)n3)nc(Br)c21 (stereo not drawn) [Compound I-17] |
| 100 to 1000 | CCOC(=O)C1(C)C(=O)Nc2nc(-c3cc(-c4ccon4)n(Cc4ccccc4F)n3)ncc21 (stereo not drawn) [Compound I-18] |
| < 100 | CCOC(=O)C1(C)C(=O)Nc2nc(-c3cc(C(C)=O)n(Cc4ccccc4F)n3)nc(N)c21 (stereo not drawn) [Compound I-19] |
| 100 to 1000 | CC(=O)c1cc(-c2nc(N)c3c(n2)NC(=O)C3(C)C(N)=O)nn1Cc1ccccc1F (stereo not drawn) [Compound I-20] |
| > 1000 | CCOC(=O)C1(C)C(=O)Nc2nc(-c3cc(COC)n(Cc4ccccc4F)n3)nc(N)c21 (stereo not drawn) [Compound I-21] |

Molecular target: T2, sGC enzyme (Homo sapiens, UniProt Q02108+Q02153)
T2 construct: host or cells: HEK293 expressing GloSensor 40F cGMP
T2 sequence (Q02108 1-690): T1 sequence (Q02108 1-690)
T2 sequence (Q02153 1-619): T1 sequence (Q02153 1-619)
Assay: cGMP GloSensor cell-based assay, 384-well format (Example 2B)
Conditions: HEK293 GloSensor 40F cGMP cells, 10 μM DETA-NONOate; 50% of high control response (Compound Y); read-out: sGC_HEK_GloSensor EC50/IC50 Abs (Norm) (nM) Binned
Method: as §1
Human embryonic kidney cells (HEK293) cells expressing GloSensor™ 40F cGMP (Part No: CS182801, Promega) were used to evaluate the activity of test compounds. The luminescent biosensors (engineered luciferase) that were incorporated into these cells detect cGMP formed by the compounds stimulating the sGC enzyme and emit luminescence.
cGMP GloSensor cells were maintained in Dulbecco's Modification of Eagle's Medium (DMEM) supplemented with fetal bovine serum (FBS) (10% final) and hygromycine (200 μg/ml). The day before assay, cells were plated in DMEM with 10% FBS in a 50 μL volume at a density of 1.5×10^4 cells/well in a poly-D-lysine coated 384-well flat white-bottom plate (Corning Cat No 35661). Cells were incubated overnight at 37° C. in a humidified chamber with 5% CO2. The next day, medium was removed and cells were replaced with 40 μl/well of GloSensor™, […] (Promega Cat No E1291). Cells were treated for 90 minutes at 25° C. to allow the substrate to equilibrate in the cells. Test compounds and Diethylenetriamine NONOate (DETA-NONOate) was diluted to […] in serum-free CO2 independent medium and serally diluted at 4× dilutions to create 5× dose curve from which 10 ul was added to the wells (x uM concentration for test compound solution and 10 μM concentration for DETA-NONOate solution; wherein x is one of the following final concentrations).
For the kinetics studies, luminescense was measured right away for 0.2 sec per well with Envision (Perkin Elmer model No). For endpoint SAR screening, data were collected after 55 min incubation at room temperature.
Data analysis was carried out as indicated above in Example 2A.

| EC50 [nM] | Compound |
| --- | --- |
| 100 to 1000 | CC1(C)C(=O)Nc2nc(-n3cc(-c4ccon4)c(Cc4ccccc4F)n3)ncc21 [Compound I-81, 2-(3-(2-fluorobenzyl)-4-(isoxazol-3-yl)-1H-pyrazol-1-yl)-5,5-dimethyl-5H-pyrrolo[2,3-d]pyrimidin-6(7H)-one] |
| < 100 | COc1cn(-c2nc(N)c3c(n2)NC(=O)C3(C)C)nc1Cc1ccccc1F [Compound I-82, 4-amino-2-(3-(2-fluorobenzyl)-4-methoxy-1H-pyrazol-1-yl)-5,5-dimethyl-5H-pyrrolo[2,3-d]pyrimidin-6(7H)-one] |
| < 100 | COc1cn(-c2nc(O)c3c(n2)NC(=O)C3(C)C)nc1Cc1ccccc1F [Compound I-83] |
| < 100 | Cc1cn(-c2nc(N)c3c(n2)NC(=O)C3(C)C)nc1Cc1ccccc1F [Compound I-84, 4-amino-2-(3-(2-fluorobenzyl)-4-methyl-1H-pyrazol-1-yl)-5,5-dimethyl-5H-pyrrolo[2,3-d]pyrimidin-6(7H)-one] |
| 100 to 1000 | Cc1cn(-c2ncc3c(n2)NC(=O)C3(C)C)nc1Cc1ccccc1F [Compound I-85] |
| 100 to 1000 | Cc1cn(-c2nc(O)c3c(n2)NC(=O)C3(C)C)nc1Cc1ccccc1F [Compound I-86] |
| > 1000 | Cc1nc(-c2nc(O)c3c(n2)NC(=O)C3(C)C)nn1Cc1ccccc1F [Compound I-88] |
| > 1000 | Cc1nc(-c2ncc3c(n2)NC(=O)C3(C)C)nn1Cc1ccccc1F [Compound I-89] |
| > 30000 | COc1ccc(CN2C(=O)C(C)(C)c3nnc(-n4cc(OC)c(Cc5ccccc5F)n4)nc32)cc1 [Compound I-91, 3-(3-(2-fluorobenzyl)-4-methoxy-1H-pyrazol-1-yl)-5-(4-methoxybenzyl)-7,7-dimethyl-5H-pyrrolo[2,3-e][1,2,4]triazin-6(7H)-one] |
| > 1000 | COc1cc(-c2nc(N)c3c(n2)NC(=O)C3(C)C)nn1Cc1cncnc1 [Compound I-92, 4-amino-2-(5-methoxy-1-(pyrimidin-5-ylmethyl)-1H-pyrazol-3-yl)-5,5-dimethyl-5H-pyrrolo[2,3-d]pyrimidin-6(7H)-one] |

From patent publication US10844064B2, “sGC stimulators” (Cyclerion Therapeutics, Inc., priority 2014, dated 2020)
